Data reported in ChEMBL document CHEMBL3627608, “Crystal structures of human RIP2 kinase catalytic domain complexed with ATP-competitive inhibitors: Foundations for understanding inhibitor selectivity” (Bioorg Med Chem, 2015).

How the values were obtained:
[1] = target: Death-associated protein kinase 3 (Homo sapiens) (UniProt O43293); assay: Inhibition of ZIPK (unknown origin) at 10 uM after 120 mins P33 radiolabeled kinase activity assay
[2] = target: Vascular endothelial growth factor receptor 2 (Homo sapiens) (UniProt P35968); assay: Inhibition of KDR (unknown origin) at 10 uM after 120 mins P33 radiolabeled kinase activity assay
[3] = target: T1, Testis-specific serine/threonine-protein kinase 2 (Homo sapiens) (UniProt Q96PF2); assay: Inhibition of TSSK2 (unknown origin) at 10 uM after 120 mins P33 radiolabeled kinase activity assay
T1 sequence (whole entry): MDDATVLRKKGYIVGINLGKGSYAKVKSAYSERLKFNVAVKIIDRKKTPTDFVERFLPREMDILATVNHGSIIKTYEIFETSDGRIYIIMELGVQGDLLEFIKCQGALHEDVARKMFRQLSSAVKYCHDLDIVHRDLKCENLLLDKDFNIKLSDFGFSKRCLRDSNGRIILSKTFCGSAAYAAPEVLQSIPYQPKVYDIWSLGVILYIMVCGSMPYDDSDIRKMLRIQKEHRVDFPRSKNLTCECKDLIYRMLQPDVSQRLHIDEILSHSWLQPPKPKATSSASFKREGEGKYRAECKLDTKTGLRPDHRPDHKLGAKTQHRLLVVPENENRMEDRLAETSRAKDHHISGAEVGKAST

[4] = target: Casein kinase I isoform gamma-3 (Homo sapiens) (UniProt Q9Y6M4); assay: Inhibition of CK1gamma3 (unknown origin) at 10 uM after 120 mins P33 radiolabeled kinase activity assay
Sequence of Casein kinase I isoform gamma-3 (Homo sapiens) (Q9Y6M4 whole entry, looked up, canonical isoform): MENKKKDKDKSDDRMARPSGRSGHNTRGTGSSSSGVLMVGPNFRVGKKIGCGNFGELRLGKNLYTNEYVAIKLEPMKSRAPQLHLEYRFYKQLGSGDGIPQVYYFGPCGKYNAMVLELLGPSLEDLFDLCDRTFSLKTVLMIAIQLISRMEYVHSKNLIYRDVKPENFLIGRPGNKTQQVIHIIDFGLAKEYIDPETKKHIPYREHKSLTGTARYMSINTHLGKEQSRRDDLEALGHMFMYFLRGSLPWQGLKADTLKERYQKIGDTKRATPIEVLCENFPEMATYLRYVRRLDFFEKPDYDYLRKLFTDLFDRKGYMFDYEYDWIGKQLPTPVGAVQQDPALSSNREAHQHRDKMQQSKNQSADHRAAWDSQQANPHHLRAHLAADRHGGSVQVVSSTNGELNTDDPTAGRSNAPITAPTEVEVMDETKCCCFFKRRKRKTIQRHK

[5] = target: Serine/threonine-protein kinase WNK3 (Homo sapiens) (UniProt Q9BYP7); assay: Inhibition of WNK3 (unknown origin) at 10 uM after 120 mins P33 radiolabeled kinase activity assay
Sequence of Serine/threonine-protein kinase WNK3 (Homo sapiens) (Q9BYP7 whole entry): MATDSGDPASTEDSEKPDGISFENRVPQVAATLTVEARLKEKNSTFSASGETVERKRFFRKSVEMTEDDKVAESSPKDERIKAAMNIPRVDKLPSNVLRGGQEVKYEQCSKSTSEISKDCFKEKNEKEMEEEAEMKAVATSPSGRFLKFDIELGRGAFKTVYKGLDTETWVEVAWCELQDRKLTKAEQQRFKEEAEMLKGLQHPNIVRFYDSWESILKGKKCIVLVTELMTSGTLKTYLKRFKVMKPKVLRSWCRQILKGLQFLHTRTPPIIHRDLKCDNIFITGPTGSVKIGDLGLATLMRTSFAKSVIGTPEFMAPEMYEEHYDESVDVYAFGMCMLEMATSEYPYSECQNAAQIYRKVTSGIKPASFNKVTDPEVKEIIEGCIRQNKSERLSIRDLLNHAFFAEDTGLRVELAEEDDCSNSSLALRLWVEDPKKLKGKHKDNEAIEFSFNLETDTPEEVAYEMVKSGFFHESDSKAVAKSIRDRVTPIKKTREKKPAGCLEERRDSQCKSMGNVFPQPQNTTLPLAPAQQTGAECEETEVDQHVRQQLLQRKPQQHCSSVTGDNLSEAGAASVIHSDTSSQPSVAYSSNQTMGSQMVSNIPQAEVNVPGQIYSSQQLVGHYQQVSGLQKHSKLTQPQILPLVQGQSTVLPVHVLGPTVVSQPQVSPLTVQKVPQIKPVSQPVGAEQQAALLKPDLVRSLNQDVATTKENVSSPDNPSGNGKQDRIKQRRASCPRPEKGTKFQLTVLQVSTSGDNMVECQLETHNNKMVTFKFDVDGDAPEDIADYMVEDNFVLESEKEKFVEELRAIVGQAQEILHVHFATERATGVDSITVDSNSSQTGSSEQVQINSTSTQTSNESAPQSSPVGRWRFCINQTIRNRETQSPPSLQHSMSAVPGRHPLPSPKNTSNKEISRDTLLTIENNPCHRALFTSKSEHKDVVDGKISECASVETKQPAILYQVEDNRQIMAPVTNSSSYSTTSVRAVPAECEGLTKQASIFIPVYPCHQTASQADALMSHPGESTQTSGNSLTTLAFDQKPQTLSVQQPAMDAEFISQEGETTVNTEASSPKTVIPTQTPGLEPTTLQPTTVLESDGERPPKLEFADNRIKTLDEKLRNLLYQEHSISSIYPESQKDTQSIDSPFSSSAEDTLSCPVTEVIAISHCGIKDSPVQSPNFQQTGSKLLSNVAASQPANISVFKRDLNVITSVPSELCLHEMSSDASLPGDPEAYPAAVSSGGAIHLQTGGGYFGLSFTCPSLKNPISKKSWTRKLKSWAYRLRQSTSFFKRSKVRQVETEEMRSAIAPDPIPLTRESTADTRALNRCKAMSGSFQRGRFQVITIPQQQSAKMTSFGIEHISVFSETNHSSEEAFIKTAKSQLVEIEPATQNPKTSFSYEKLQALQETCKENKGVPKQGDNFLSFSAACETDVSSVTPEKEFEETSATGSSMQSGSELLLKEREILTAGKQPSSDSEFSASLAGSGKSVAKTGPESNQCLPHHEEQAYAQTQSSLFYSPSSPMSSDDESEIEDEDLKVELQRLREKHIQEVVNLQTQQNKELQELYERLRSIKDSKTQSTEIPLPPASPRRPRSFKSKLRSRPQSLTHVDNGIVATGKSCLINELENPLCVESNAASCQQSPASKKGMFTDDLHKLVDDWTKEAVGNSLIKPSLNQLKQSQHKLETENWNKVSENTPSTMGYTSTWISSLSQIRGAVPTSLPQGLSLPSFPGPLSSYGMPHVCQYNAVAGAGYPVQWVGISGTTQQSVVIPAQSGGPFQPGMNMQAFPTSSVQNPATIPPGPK

[6] = target: T2, MAP/microtubule affinity-regulating kinase 4 (Homo sapiens) (UniProt Q96L34); assay: Inhibition of MARK4 (unknown origin) at 10 uM after 120 mins P33 radiolabeled kinase activity assay
T2 sequence (whole entry): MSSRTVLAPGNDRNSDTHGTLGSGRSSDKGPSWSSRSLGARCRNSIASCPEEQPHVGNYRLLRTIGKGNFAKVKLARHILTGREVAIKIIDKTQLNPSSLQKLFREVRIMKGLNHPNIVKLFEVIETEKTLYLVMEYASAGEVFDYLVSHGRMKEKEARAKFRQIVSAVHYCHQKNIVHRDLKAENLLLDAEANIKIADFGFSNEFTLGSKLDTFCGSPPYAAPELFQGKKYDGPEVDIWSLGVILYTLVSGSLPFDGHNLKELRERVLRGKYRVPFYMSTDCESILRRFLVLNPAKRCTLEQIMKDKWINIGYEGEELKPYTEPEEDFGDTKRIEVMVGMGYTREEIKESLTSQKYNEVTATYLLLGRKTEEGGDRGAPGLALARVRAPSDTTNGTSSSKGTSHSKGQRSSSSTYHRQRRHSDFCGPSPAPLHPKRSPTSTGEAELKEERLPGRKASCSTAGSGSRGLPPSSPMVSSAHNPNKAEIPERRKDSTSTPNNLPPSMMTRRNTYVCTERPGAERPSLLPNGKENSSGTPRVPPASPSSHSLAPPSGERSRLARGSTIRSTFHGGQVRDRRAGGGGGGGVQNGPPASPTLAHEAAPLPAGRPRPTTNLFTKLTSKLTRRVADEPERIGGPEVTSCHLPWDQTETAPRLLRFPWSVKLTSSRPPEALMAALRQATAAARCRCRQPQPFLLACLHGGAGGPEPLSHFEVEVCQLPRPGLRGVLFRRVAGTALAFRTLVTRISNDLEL

[7] = target: Serine/threonine-protein kinase PAK 4 (Homo sapiens) (UniProt O96013); assay: Inhibition of PAK4 (unknown origin) at 10 uM after 120 mins P33 radiolabeled kinase activity assay
Sequence of Serine/threonine-protein kinase PAK 4 (Homo sapiens) (O96013 whole entry, looked up): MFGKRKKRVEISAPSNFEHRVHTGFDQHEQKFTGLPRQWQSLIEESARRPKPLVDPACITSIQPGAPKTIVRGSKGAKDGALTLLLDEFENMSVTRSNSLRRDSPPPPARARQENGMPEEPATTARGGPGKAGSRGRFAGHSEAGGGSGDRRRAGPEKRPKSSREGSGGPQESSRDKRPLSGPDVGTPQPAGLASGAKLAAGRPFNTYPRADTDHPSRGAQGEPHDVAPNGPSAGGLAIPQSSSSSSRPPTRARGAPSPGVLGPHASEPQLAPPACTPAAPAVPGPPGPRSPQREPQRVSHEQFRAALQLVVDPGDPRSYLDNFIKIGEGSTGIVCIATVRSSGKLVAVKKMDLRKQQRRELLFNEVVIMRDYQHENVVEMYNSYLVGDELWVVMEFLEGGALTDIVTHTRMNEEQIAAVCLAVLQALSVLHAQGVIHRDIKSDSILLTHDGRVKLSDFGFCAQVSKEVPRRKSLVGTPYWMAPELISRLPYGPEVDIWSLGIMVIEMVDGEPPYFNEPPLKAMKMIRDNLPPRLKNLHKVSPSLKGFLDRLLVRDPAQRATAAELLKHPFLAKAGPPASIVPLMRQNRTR

[8] = target: Mast/stem cell growth factor receptor Kit (Homo sapiens) (UniProt P10721); assay: Inhibition of c-Kit (unknown origin) at 10 uM after 120 mins P33 radiolabeled kinase activity assay
[9] = target: Myosin light chain kinase 2, skeletal/cardiac muscle (Homo sapiens) (UniProt Q9H1R3); assay: Inhibition of MLCK2 (unknown origin) at 10 uM after 120 mins P33 radiolabeled kinase activity assay
Sequence of Myosin light chain kinase 2, skeletal/cardiac muscle (Homo sapiens) (Q9H1R3 whole entry): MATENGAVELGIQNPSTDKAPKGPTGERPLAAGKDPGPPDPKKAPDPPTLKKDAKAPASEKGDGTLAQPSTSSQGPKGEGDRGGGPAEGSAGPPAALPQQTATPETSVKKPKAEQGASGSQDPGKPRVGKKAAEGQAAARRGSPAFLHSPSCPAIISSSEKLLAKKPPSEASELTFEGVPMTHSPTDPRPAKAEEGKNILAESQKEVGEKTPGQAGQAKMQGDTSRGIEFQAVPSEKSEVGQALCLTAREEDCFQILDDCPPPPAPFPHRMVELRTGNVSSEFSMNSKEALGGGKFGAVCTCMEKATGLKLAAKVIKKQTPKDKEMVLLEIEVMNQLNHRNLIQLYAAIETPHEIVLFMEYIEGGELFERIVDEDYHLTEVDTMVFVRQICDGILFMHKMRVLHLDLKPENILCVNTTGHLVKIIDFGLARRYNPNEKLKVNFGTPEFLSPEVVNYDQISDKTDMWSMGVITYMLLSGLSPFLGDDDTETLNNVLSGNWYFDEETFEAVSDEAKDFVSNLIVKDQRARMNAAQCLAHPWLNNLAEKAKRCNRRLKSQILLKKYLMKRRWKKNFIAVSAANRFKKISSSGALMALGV

[10] = target: Tyrosine-protein kinase JAK1 (Homo sapiens) (UniProt P23458); assay: Inhibition of JAK1 (unknown origin) at 10 uM after 120 mins P33 radiolabeled kinase activity assay
Sequence of Tyrosine-protein kinase JAK1 (Homo sapiens) (P23458 whole entry): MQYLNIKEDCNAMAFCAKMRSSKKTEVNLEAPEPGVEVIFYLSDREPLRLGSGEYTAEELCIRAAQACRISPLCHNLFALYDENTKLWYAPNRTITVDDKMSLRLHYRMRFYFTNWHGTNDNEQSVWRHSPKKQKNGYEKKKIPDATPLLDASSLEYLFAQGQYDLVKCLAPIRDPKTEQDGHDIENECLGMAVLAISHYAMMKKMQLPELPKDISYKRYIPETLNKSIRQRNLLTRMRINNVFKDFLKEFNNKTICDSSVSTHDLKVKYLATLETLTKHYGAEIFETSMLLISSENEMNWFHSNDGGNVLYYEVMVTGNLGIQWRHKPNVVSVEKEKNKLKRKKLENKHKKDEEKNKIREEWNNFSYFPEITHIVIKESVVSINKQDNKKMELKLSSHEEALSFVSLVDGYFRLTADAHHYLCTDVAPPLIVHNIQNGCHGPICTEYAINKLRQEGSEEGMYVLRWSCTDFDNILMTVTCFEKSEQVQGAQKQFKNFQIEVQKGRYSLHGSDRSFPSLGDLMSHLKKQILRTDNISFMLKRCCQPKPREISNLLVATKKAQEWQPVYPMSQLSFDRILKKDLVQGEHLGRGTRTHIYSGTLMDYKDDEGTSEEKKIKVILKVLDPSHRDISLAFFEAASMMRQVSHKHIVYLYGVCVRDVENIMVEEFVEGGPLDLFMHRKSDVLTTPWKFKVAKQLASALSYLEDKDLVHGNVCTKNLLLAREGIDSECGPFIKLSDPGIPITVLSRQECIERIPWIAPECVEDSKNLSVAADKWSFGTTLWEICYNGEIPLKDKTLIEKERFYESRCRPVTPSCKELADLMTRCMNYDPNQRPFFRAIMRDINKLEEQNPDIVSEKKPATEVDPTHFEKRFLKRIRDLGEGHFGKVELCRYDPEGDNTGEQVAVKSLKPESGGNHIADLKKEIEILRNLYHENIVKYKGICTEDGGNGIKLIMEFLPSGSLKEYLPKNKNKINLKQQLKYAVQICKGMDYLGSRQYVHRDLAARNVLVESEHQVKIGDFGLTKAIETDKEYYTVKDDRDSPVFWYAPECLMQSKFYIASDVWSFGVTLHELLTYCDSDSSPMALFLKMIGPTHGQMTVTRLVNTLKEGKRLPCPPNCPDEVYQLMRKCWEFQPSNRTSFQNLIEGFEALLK

[11] = target: MAP kinase-activated protein kinase 2 (Homo sapiens) (UniProt P49137); assay: Inhibition of MAPKAPK2 (unknown origin) at 10 uM after 120 mins P33 radiolabeled kinase activity assay
Sequence of MAP kinase-activated protein kinase 2 (Homo sapiens) (P49137 whole entry, looked up, the tested form may be a part): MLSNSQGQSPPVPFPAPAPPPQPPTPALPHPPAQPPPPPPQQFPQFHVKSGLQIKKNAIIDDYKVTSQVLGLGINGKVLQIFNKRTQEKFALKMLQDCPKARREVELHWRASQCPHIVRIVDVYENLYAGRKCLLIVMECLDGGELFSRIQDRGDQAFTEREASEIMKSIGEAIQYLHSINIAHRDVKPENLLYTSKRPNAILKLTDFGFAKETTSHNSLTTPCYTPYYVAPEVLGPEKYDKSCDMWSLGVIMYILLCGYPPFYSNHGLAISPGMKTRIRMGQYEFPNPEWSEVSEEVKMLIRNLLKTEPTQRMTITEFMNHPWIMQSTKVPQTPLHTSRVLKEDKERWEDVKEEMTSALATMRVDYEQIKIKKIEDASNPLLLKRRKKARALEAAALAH

[12] = target: PAS domain-containing serine/threonine-protein kinase (Homo sapiens) (UniProt Q96RG2); assay: Inhibition of PASK (unknown origin) at 10 uM after 120 mins P33 radiolabeled kinase activity assay
[13] = target: T3, G protein-coupled receptor kinase 3 (Homo sapiens) (UniProt P35626); assay: Inhibition of GRK3 (unknown origin) at 10 uM after 120 mins P33 radiolabeled kinase activity assay
T3 sequence (whole entry): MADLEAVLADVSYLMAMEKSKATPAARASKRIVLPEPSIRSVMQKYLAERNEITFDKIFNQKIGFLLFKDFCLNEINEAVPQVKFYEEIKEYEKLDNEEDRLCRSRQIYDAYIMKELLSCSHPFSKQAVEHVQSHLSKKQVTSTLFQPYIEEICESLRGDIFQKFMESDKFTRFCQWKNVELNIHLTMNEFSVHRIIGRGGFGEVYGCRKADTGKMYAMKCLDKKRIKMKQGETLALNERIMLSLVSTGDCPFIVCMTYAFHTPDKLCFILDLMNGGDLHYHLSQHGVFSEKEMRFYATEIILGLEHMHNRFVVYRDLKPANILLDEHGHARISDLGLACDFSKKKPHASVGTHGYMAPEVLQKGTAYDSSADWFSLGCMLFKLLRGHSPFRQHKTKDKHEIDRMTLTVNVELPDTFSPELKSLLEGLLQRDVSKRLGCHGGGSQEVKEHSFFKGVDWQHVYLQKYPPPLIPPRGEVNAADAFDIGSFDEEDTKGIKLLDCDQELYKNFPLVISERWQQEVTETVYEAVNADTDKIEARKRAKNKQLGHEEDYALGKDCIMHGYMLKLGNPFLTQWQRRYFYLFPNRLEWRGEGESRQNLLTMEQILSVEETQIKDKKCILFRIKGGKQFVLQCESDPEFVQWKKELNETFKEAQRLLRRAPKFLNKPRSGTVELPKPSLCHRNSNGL

Row | SMILES | inhibition [1] [%] | inhibition [2] [%] | inhibition [3] [%] | inhibition [4] [%] | inhibition [5] [%] | inhibition [6] [%] | inhibition [7] [%] | inhibition [8] [%] | inhibition [9] [%] | inhibition [10] [%] | inhibition [11] [%] | inhibition [12] [%] | inhibition [13] [%]
1 | CS(=O)(=O)c1cccc(Nc2nccc(-c3sc(N4CCOCC4)nc3-c3cccc(NS(=O)(=O)c4c(F)cccc4F)c3)n2)c1 | 50.7 | 96.3 | 1.83 | 5.39 | 25.9 | 39.1 | 4.24 | 77.7 | 30.2 | -2.11 | 10.7 | -0.14 | -3.43
2 | COCCNC(=O)c1ccc2c(c1)nc(-c1cnc(-c3ccc(Cl)cc3)[nH]1)n2CCOC | 3.1 | 7.13 | 3.82 | 0.42 | -2.44 | 12.5 | 5.75 | 5.79 | 12.1 | 5.2 | 11.5 | -2.42 | -0.61
3 | CC(C)(C)c1cc(NC(=O)Nc2ccc(Oc3ccncc3)cc2)no1 | 35.6 | 98.6 | 1.87 | 3.82 | 1.93 | 13.8 | 5.19 | 84.9 | 53.2 | -3.4 | 11 | 10.9 | -2.07
